According to US20190338294A1, “ORTHOGONAL TRANSCRIPTIONAL SWITCHES DERIVED FROM TET REPRESSOR HOMOLOGS FOR SACCHAROMYCES CEREVISIAE” (The Johns Hopkins University, priority 2016, published 2019):
Where two headings read alike, the source gives them in different places.

Legend:
ethTA(=NLS-ethR-VP16) = format: cell-based, Mycobacterium tuberculosis; conditions: 2-Benzyl acetate 0.01%, On w/o drug
lmrTAv2 (=NLS-lmrA-VP16) = assay: Lmr-Offv2 switch candidate, GFP reporter (strain lmr/yxaG-lmrTAv2); format: cell-based, Bacillus subtilis; conditions: Quercetin 0.13 μM, Fisetin 0.19 μM, Coumesterol 0.22 μM, On w/o drug
tTA (=tetR-VP16) = molecular target: T1, tTA (=tetR-VP16) (Escherichia coli, UniProt P04483); assay: Tet-Off switch, GFP reporter, orthogonality test; format: cell-based; conditions: SC with 25-μM doxycycline, 25-μM D-camphor, 48-μM DAPG or 150-μM p-cumate
T1 construct: expressed in transfected cells; host or cells: Saccharomyces cerevisiae BY4742, integrated pSIB527 (strain TetOffG)

cymTA(=NLS-cymR-VP16) = molecular target: T2, cymTA(=NLS-cymR-VP16) (Pseudomonas putida, UniProt O33453); assay: Cumate-Off switch, GFP reporter (strain cymG-TA); format: cell-based; conditions: SC with 25-μM doxycycline, 25-μM D-camphor, 48-μM DAPG or 150-μM p-cumate
T2 construct: (cymTA in pSIB470); expressed in transfected cells; host or cells: Saccharomyces cerevisiae BY4741, integrated pSIB470 (strain cymG-TA)
T2 sequence (O33453 other isoform, or with tags, fused parts or gaps): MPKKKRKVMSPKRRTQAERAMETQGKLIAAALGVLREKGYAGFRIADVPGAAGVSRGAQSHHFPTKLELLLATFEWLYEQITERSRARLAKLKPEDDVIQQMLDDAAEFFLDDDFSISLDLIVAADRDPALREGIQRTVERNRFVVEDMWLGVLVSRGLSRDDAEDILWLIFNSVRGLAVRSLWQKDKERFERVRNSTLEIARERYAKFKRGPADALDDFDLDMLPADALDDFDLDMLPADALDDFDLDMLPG

camTA (=camR-VP16-NLS) = assay: Camphor-Off switch, GFP reporter, orthogonality test; format: cell-based, Pseudomonas putida; conditions: SC with 25-μM doxycycline, 25-μM D-camphor, 48-μM DAPG or 150-μM p-cumate
BY4741 [1] = conditions: cited from earlier work
NLS-PhlF = assay: DAPG-On system with ADE2 reporter, spot growth on SC-Ade (strains AphOx-2μPhlF); conditions: 5 μM DAPG; hardly grew on DAPG-free SC-Ade
Experimental: Cells were cultured for 1 day at 30° C. in SC-Leu-His (FIG. 6A), SC-Leu-His-Ade (FIG. 6B), SC-Leu-His with 24-μM DAPG (FIG. 6C), and SC-Leu-His-Ade with 24-μM DAPG (FIG. 6D). The cells were diluted 10-fold stepwise across each row.
The performance of the DAPG-On system was assessed using ADE2 as a reporter in the ade2Δ BY11204 strain.

BY4741 [2] = assay: Effects of DAPG on plating efficiency of BY4741; format: cell-based, Saccharomyces cerevisiae; conditions: 2 days
Experimental: FIG. 2 is a bar graph showing the effects of DAPG on plating efficiency of BY4741. Yeast strain BY4741 overnight culture in SC medium was diluted 25,000-fold, and 100 μl was spread on SC, and SC containing 24-μM or 48 μM of DAPG. The number of colonies formed was counted after 2 days. The values were means and standard deviations calculated from three experiments.

phlTA (=phlF-VP16) [3] = assay: DAPG-Off system with ADE2 reporter, spot growth on SC-Ade (strain phlA-TA); conditions: 24 μM DAPG, 2 days at 30° C.
Experimental: FIG. 3A-FIG. 3D is a series of photographs showing the evaluation of the DAPG-Off system using the ADE2 gene (CDS) as a reporter. Cells were cultured for 2 days at 30° C. in SC (FIG. 3A), SC-Ade (FIG. 3B), SC with 24 μM of DAPG (FIG. 3C), and SC-Ade with 24-DAPG (FIG. 3D). Cells were diluted 10-fold stepwise across each row.
A second reporter gene was used to further assess the performance of the DAPG-Off switch. Here, it was examined whether the ADE2 gene under the control of phlPr complements the adenine-auxotrophy of strain BY11204 in a DAPG-dependent manner (FIG. 3A-FIG. 3D).
phlTA (=phlF-VP16) [4] = assay: DAPG-Off switch, GFP reporter, flow cytometry (strain DapG-TA); format: cell-based, Pseudomonas; conditions: for GFP fluorescence of DapG-TA: compared with BY4741 (background); for intensity of reporter GFP fluorescence, DAPG-Off switch: SC with 25-μM doxycycline, 25-μM D-camphor, 48-μM DAPG or 150-μM p-cumate
varTA (=varR-VP16) = assay: Var-Off switch candidate, GFP reporter (strain varG-TA); format: cell-based, Streptomyces virginae; conditions: Virginiamycin S1 2 mM, On w/o drug
icaTA (=icaR-VP16) = assay: IcaR-Off switch candidate, GFP reporter (strain icaG-TA); format: cell-based, Staphylococcus epidermidis; conditions: Gentamicin 10 mM, On w/o drug

CC(=O)OCc1ccccc1 [2-Benzyl acetate]
Expression of GFP with drug (ethTA(=NLS-ethR-VP16)): On | Expression of GFP with drug (ethTA(=NLS-ethR-VP16); listed as 2-benzyl acetate): solid ligand-independent GFP fluorescence

O=c1oc2cc(O)ccc2c2oc3cc(O)ccc3c12 [Coumesterol]
Expression of GFP with drug (lmrTAv2 (=NLS-lmrA-VP16)): On

CC(=O)c1c(O)cc(O)c(C(C)=O)c1O [DAPG, 2,4-diacetylphloroglucinol]
intensity of reporter GFP fluorescence, Tet-Off switch (tTA (=tetR-VP16)): lowered GFP fluorescence | intensity of reporter GFP fluorescence, Cumate-Off switch (cymTA(=NLS-cymR-VP16)): strong GFP signal | intensity of reporter GFP fluorescence, Camphor-Off switch (camTA (=camR-VP16-NLS)): lowered GFP fluorescence | growth of BY4741 (BY4741 [1]; 10-μg/ml DAPG (Kwak et al., 2011)): did not inhibit growth | growth of cells of BY4741 background (BY4741 [1]; higher concentrations than 10-μg/ml DAPG (Troppens et al., 2013)): did show sensitivity | growth of strains AphOx-2μPhlF on SC-Ade medium (NLS-PhlF): vigorous growth | number of colonies formed (BY4741 [2]; SC with 24-μM (5-μg/ml) DAPG vs SC without DAPG): little difference | number of colonies formed (BY4741 [2]; SC with 48-μM (10-μg/ml) DAPG vs SC without DAPG): little difference | growth of phlA-TA strain on SC-Ade medium (phlTA (=phlF-VP16) [3]): did not grow | culture time over which GFP fluorescence reduced to background levels (phlTA (=phlF-VP16) [4]; 48 μM DAPG, strain DapG-TA): 14 h | GFP fluorescence of DapG-TA (phlTA (=phlF-VP16) [4]; 12-μM DAPG in SC): higher than that of the BY4741 control strain | GFP fluorescence of DapG-TA (phlTA (=phlF-VP16) [4]; 48-μM DAPG in SC): decreased to the same level as BY4741 | intensity of reporter GFP fluorescence, DAPG-Off switch (phlTA (=phlF-VP16) [4]): decreased to the background level

O=c1c(O)c(-c2ccc(O)c(O)c2)oc2cc(O)ccc12 [Fisetin]
Expression of GFP with drug (lmrTAv2 (=NLS-lmrA-VP16)): On

O=c1c(O)c(-c2ccc(O)c(O)c2)oc2cc(O)cc(O)c12 [Quercetin]
Expression of GFP with drug (lmrTAv2 (=NLS-lmrA-VP16)): On | Expression of GFP with drug (lmrTAv2 (=NLS-lmrA-VP16); listed as quercetin): not ligand (quercetin)-responsive

CC[C@H]1NC(=O)[C@@H](NC(=O)c2ncccc2O)[C@@H](C)OC(=O)[C@H](c2ccccc2)NC(=O)[C@@H]2CC(=O)CCN2C(=O)[C@H](Cc2ccccc2)N(C)C(=O)[C@@H]2CCCN2C1=O [Virginiamycin S1]
Expression of GFP with drug (varTA (=varR-VP16)): On | Expression of GFP with drug (varTA (=varR-VP16); listed as virginiamycin S): strong GFP expression

D-camphor
intensity of reporter GFP fluorescence, Tet-Off switch (tTA (=tetR-VP16)): strong GFP signal | intensity of reporter GFP fluorescence, Cumate-Off switch (cymTA(=NLS-cymR-VP16)): strong GFP signal | intensity of reporter GFP fluorescence, Camphor-Off switch (camTA (=camR-VP16-NLS)): decreased to the background level | intensity of reporter GFP fluorescence, DAPG-Off switch (phlTA (=phlF-VP16) [4]): strong GFP signal

Gentamicin
Expression of GFP with drug (icaTA (=icaR-VP16)): On | Expression of GFP with drug (icaTA (=icaR-VP16); listed as gentamicin): solid ligand-independent GFP fluorescence
